Source: article PMC11091888, “Evaluation of Fusobacterium nucleatum Enoyl-ACP Reductase (FabK) as a Narrow-Spectrum Drug Target” (ACS Infectious Diseases, 2024)
Values after ≈ are worked out from the molar mass of the structure shown. Values joined by “and” are separate entries in the source; they are usually repeats but may differ in a detail not shown here. Equal values may be shown once. Read-outs that look alike come from different tables or passages of the source.

Legend:
E. faecalis FA2–2 = assay: MIC against wild-type E. faecalis FA2-2 (FabI and FabK); assay type: cell-based, Enterococcus faecalis; conditions: E. faecalis FA2-2, possesses both FabI and FabK
Protocol: (§1) Compounds were twofold serially diluted (100–0.2 μg/mL) across a 96-well plate in 100 μL of media used for the specific organism (Table S4). For anaerobes, plates were incubated anaerobically at 37 °C for 1 h and then inoculated with approximately 10^5 to 10^6 CFU/well. Plates were incubated at 37 °C for up to 48 h, and MICs were read by visual inspection.

FnFabK = FnFabK (Fusobacterium nucleatum subsp. nucleatum, UniProt Q8RGV3); assay: biochemical
Chain of FnFabK (Q8RGV3 entry or part of it): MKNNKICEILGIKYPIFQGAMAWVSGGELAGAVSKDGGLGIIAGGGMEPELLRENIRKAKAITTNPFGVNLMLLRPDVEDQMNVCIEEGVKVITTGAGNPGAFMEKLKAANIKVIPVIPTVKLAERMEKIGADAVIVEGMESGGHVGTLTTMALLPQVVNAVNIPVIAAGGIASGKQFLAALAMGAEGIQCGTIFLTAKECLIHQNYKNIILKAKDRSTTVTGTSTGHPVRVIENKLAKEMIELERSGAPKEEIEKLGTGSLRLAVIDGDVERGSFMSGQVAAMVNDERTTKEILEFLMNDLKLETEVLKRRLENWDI
Protocol: Incubation lasted for a total of 10 min before the addition of crotonyl-CoA substrate, and the reaction was initiated by the addition of NADH for a final assay volume of 100 μL. The oxidation of NADH to NAD+ was measured by tracking fluorescence (340 nm/460 nm) with a Biotek Synergy H1 microplate reader in 15 s intervals for a total of 10 min to monitor the rate of reaction. The reaction was conducted in Greiner Bio-One 384-well μClear Bottom Polystyrene Microplates. […] Measurements were conducted in triplicate, and IC50’s were calculated via GraphPad Prism 9.1.2 using four-parameter logistic (Hill) curve analysis using equation Y = bottom + (top – bottom)/[1 + 10 (Log IC50 – X) × Hill Slope], where X is the logarithm of the dose and Y is the response. The assay concentrations of the cofactor, NADH, and substrate, crotonyl-CoA, were also determined via GraphPad Prism 9.1.2 using the substrate inhibition model to determine Km(app).

Bacteroides ovatus = assay: MIC, digestive tract panel; assay type: cell-based; conditions: ENR FabI/FabK
Protocol: as §1

Bifidobacterium breve = assay: MIC, digestive tract panel; assay type: cell-based; conditions: Type I FAS
Protocol: as §1

Clostridium sp. MSTE9 = assay: MIC, digestive tract panel; assay type: cell-based; conditions: ENR FabK
Protocol: as §1

F. periodonticum 2_1_31 = assay: MIC, digestive tract panel; assay type: cell-based; conditions: ENR FabK
Protocol: as §1

F. periodonticum 33693 = assay: MIC, digestive tract panel; assay type: cell-based; conditions: ENR FabK
Protocol: as §1

F. vincentii 49256 = assay: MIC, digestive tract panel; assay type: cell-based; conditions: ENR FabK
Protocol: as §1

P. gingivalis 33277 = assay: MIC, digestive tract panel; assay type: cell-based; conditions: Porphyromonas gingivalis, ENR FabK
Protocol: as §1

P. gingivalis F0185 = assay: MIC, digestive tract panel; assay type: cell-based; conditions: Porphyromonas gingivalis, ENR FabK
Protocol: as §1

P. gingivalis F0566 = assay: MIC, digestive tract panel; assay type: cell-based; conditions: Porphyromonas gingivalis, ENR FabK
Protocol: as §1

P. gingivalis F0569 = assay: MIC, digestive tract panel; assay type: cell-based; conditions: Porphyromonas gingivalis
Protocol: as §1

[1] = test system: Propionibacterium acidifaciens; assay: MIC, digestive tract panel; assay type: cell-based; conditions: ENR FabI
Protocol: as §1

Streptococcus downei = assay: MIC, digestive tract panel; assay type: cell-based; conditions: ENR FabK
Protocol: as §1

Streptococcus pyogenes = assay: MIC, digestive tract panel; assay type: cell-based; conditions: ENR FabK
Protocol: as §1

Streptococcus salivarius = assay: MIC, digestive tract panel; assay type: cell-based; conditions: ENR FabK
Protocol: as §1

Streptococcus sanguinis = assay: MIC, digestive tract panel; assay type: cell-based; conditions: ENR FabK
Protocol: as §1

[2] = test system: Streptococcus sp. CMW7705B; assay: MIC, digestive tract panel; assay type: cell-based; conditions: ENR FabK
Protocol: as §1

Streptococcus sp. SPAR10 = assay: MIC, digestive tract panel; assay type: cell-based; conditions: ENR FabK
Protocol: as §1

[3] = Cytotoxicity against HCT116 cells (resazurin viability); assay type: cell-based; conditions: human, HCT116 colorectal carcinoma cells, maximum tested concentration 100 μg/mL
Protocol: This was done as described[36] using colorectal carcinoma HCT116 and Vero epithelial cells cultured at 37 °C in 5% CO2 in Dulbecco’s modified Eagle’s medium (DMEM) with 4.5 g/L glucose and L-glutamine. The medium was supplemented with 10% v/v FetalGro (Rocky Mountain Biologicals). Approximately 25,000/well were aliquoted into black 96-well plates (Greiner Bio-One) and incubated overnight, before being resuspended in DMEM supplemented with 20% Gibco KnockOut Serum Replacement (Thermo Fisher Scientific). […] Cell viability was analyzed using resazurin as described.[36]

CdFabK = test system: CdFabK; parameters: method as in PMID 37224699; conditions: previously reported, cited from earlier work

CS(=O)(=O)c1ccc2nc(NC(=O)NCc3nc(-c4ccc(Br)cc4)c[nH]3)sc2c1 [Compound 681, 1-((4-(4-bromophenyl)-1H-imidazole-2-yl)methyl)-3-(6-(methylsulfonyl)benzo[d]thiazol-2-yl)urea]
MIC Ef wild-type (E. faecalis FA2–2): 100 µg/mL and >100 µg/mL | MIC (E. faecalis FA2–2; Enterococcus faecalis, read-out: MIC Ef wild-type): > 100 µg/mL | IC50 (FnFabK; IC50 against FnFabK, equivalent concentration, conversion of the μM value): 1.97 µM | Hill coefficient (FnFabK inhibition) (FnFabK; four-parameter logistic fit): 1.01 | MIC (Bacteroides ovatus): >100 µg/mL | MIC (Bacteroides ovatus; read-out: MIC): > 100 µg/mL | MIC (Bifidobacterium breve): >100 µg/mL | MIC (Bifidobacterium breve; read-out: MIC): > 100 µg/mL | MIC (Clostridium sp. MSTE9): > 100 µg/mL | MIC (F. periodonticum 2_1_31): 0.8 µg/mL (≈ 1.58 µM) | MIC (F. periodonticum 33693): 0.8 µg/mL (≈ 1.58 µM) | MIC (F. vincentii 49256): 1.6 µg/mL (≈ 3.16 µM) | MIC (P. gingivalis 33277): > 100 µg/mL | MIC (P. gingivalis F0185): 6.3 µg/mL (≈ 12.4 µM) | MIC (P. gingivalis F0566): 3.1 µg/mL (≈ 6.12 µM) | MIC (P. gingivalis F0569): > 100 µg/mL | MIC [1]: 6.3 µg/mL (≈ 12.4 µM) | MIC (Streptococcus downei): < 1.6 µg/mL | MIC (Streptococcus pyogenes): < 1.6 µg/mL | MIC (Streptococcus salivarius): < 1.6 µg/mL | MIC (Streptococcus sanguinis): < 1.6 µg/mL | MIC [2]: < 1.6 µg/mL | MIC (Streptococcus sp. SPAR10): < 1.6 µg/mL | IC50 at 24 h [3]: > 100 µg/mL | IC50 against CdFabK, equivalent concentration (CdFabK): 0.2 µg/mL | IC50 (CdFabK; read-out: IC50 against CdFabK): 450 nM
